Target: T1, NR0B1 (Homo sapiens, UniProt P51843)
T1 construct: H460 cells or H460 cells expressing luciferase in a 10 cm plate were incubated with indicated compounds; endogenous in cells; host or cells: H460 (NSCLC, KEAP1-mutant)
T1 sequence (P51843 1-470): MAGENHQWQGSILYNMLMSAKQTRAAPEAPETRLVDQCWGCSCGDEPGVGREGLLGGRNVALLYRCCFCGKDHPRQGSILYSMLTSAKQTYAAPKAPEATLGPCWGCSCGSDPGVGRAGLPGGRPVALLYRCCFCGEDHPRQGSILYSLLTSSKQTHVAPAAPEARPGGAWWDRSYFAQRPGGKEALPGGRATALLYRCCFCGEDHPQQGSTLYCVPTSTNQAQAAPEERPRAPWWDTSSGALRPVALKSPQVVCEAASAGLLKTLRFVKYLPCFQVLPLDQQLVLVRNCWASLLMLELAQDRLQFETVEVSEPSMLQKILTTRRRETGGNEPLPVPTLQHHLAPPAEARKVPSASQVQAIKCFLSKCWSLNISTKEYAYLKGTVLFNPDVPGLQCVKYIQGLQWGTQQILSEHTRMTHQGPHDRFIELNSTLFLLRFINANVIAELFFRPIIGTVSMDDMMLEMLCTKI
Experiment: isoTOP-ABPP of compound-treated H460 cells: NR0B1
Type: cell-based
Conditions: for receptor occupancy at 40 µM: NCI-H460, 40 μM for 3 h, read-out: target occupancy of C274 of NR0B1
Protocol: For analysis of NR0B1 ligands or control compound reactivity, H460 cells or H460 cells expressing luciferase in a 10 cm plate were incubated with indicated compounds in serum/dye-free RPMI for 3 hours at 37° C. Cells were washed once ice-cold PBS and lysed in 1% Triton X-100 dissolved in PBS with protease inhibitors (Sigma) by sonication. Samples were clarified by centrifugation for 10 min at 16,000×g. Lysate was adjusted to 1.5 mg ml^−1 in 500 μL.
Samples were labeled for 1 h at ambient temperature with 100 μM iodoacetamide alkyne (1, IA-alkyne, 5 μL of 10 mM stock in DMSO). Samples were conjugated by copper-catalyzed azide-alkyne cycloaddition (CuAAC) to isotopically labeled, TEV-cleavable tags (TEV-tags). Heavy CuAAC reaction mixtures was added to the DMSO-treated or shGFP control samples and light CuAAC reaction mixture was added to compound-treated or shNRF2 samples. The CuAAC reaction mixture consisted of TEV tags (light or heavy, 10 μL of 5 mM stocks in DMSO, final concentration=100 μM), 1 mM tris(2-carboxyethyl)phosphine hydrochloride (TCEP; fresh 50× stock in water, final concentration=1 mM), ligand (17× stock in DMSO:t-butanol 1:4, final concentration=100 μM) and 1 mM CuSO4 (50× stock in water, final concentration=1 mM). The samples were allowed to react for 1 h at which point the samples were centrifuged (16,000×g, 5 min, 4° C.). The resulting pellets were sonicated in ice-cold methanol (500 μL) and the resuspended light- and heavy-labeled samples were then combined pairwise and centrifuged (16,000×g, 5 min, 4° C.). The pellets were solubilized in PBS containing 1.2% SDS (1 mL) with sonication and heating (5 min, 95° C.) and any insoluble material was removed by an additional centrifugation step at ambient temperature (14,000×g, 1 min).
For each sample, 100 μL of streptavidin-agarose beads slurry (Fisher) was washed in 10 mL PBS and then resuspended in 6 mL PBS (final concentration 0.2% SDS in PBS). The SDS-solubilized proteins were added to the suspension of streptavidin-agarose beads and the bead mixture was rotated for 3 h at ambient temperature. After incubation, the beads were pelleted by centrifugation (1,400×g, 3 min) and were washed (2×10 mL PBS and 2×10 mL water).
The beads were transferred to eppendorftubes with 1 mL PBS, centrifuged (1,400×g, 3 min), and resuspended in PBS containing 6 M urea (500 μL). To this was added 10 mM DTT (25 μL of a 200 mM stock in water) and the beads were incubated at 65° C. for 15 mins. 20 mM iodoacetamide (25 μL of a 400 mM stock in water) was then added and allowed to react at 37° C. for 30 mins with shaking. The bead mixture was diluted with 900 μL PBS, pelleted by centrifugation (1,400×g, 3 min), and resuspended in PBS containing 2 M urea (200 μL). To this was added 1 mM CaCl2 (2 μL of a 200 mM stock in water) and trypsin (2 μg, Promega, sequencing grade) and the digestion was allowed to proceed overnight at 37° C. with shaking. The beads were separated from the digest with Micro Bio-Spin columns (Bio-Rad) by centrifugation (1,000×g, 1 min), washed (2×1 mL PBS and 2×1 mL water) and then transferred to fresh eppendorf tubes with 1 mL water. The washed beads were washed once further in 140 μL TEV buffer (50 mM Tris, pH 8, 0.5 mM EDTA, 1 mM DTT) and then resuspended in 140 μL TEV buffer. 5 μL TEV protease (80 μM) was added and the reactions were rotated overnight at 29° C. The TEV digest was separated from the beads with Micro Bio-Spin columns by centrifugation (1,400×g, 3 min) and the beads were washed once with water (100 μL). The samples were then acidified to a final concentration of 5% (v/v) formic acid and stored at −80° C. prior to analysis.
Samples processed for multidimensional liquid chromatography tandem mass spectrometry (MudPIT) were pressure loaded onto a 250 μm (inner diameter) fused silica capillary columns packed with C18 resin (Aqua 5 μm, Phenomenex). […]

| SMILES | engagement of C274 of NR0B1 (NSCLC cells, 40 μM, 3 h) | cysteines in NR0B1 engaged among several quantified cysteines (40 μM, 3 h) | receptor occupancy at 40 µM (NSCLC cells) [%] | BPK-29-competed isoTOP-ABPP analysis (NR0B1 C274, 40 μM) | relative potency of C274 engagement (NSCLC cells) | engagement of C274 (NSCLC cells, 5 μM, 3 h) [%] |
| --- | --- | --- | --- | --- | --- | --- |
| O=C(c1ccc(N2CCOCC2)cc1)N1CCC(CN(C(=O)CCl)c2cncnc2)CC1 [BPK-9, 2-chloro-N-((1-(4-morpholinobenzoyl)piperidin-4-yl)methyl)-N-(pyrimidin-5-yl)acetamide] | did not engage C274 |  |  |  |  |  |
| O=C(CCl)N(Cc1cccc(Cl)c1F)c1ccc(Cl)nc1 [BPK-26, 2-chloro-N-(3-chloro-2-fluorobenzyl)-N-(6-chloropyridin-3-yl)acetamide] |  | the only cysteine in NR0B1 engaged | ~70 |  |  |  |
| O=C(c1ccc(N2CCOCC2)cc1)N1CCCC(N(Cc2ccccc2)C(=O)CCl)CC1 (centres unmarked) [BPK-29, N-benzyl-2-chloro-N-(1-(4-morpholinobenzoyl)azepan-4-yl)acetamide] |  | the only cysteine in NR0B1 engaged | ~70 | Yes (Competed defined as showing R value ≥ 3.0 at 40 μM of test compound) | superior potency compared to BPK-26 | > 50 |
